Where “and” joins values, the source holds several entries; their conditions need not be identical. Equal values may be shown once.
Target: Trypanothione reductase (Crithidia fasciculata, UniProt P39040)
Experiment: Inhibition Assay
Details: pH 7.8; 25 °C
Text: Crithidia fasciculata trypanothione reductase (cfTR) was purifed from E.coli using the expression system. The activity of the cfTR was observed from the rate of oxidation of the co-substrate NADPH to NADP+ as measured by a decrease in absorbance at 340nm.

Sequence of Trypanothione reductase (P39040 whole entry): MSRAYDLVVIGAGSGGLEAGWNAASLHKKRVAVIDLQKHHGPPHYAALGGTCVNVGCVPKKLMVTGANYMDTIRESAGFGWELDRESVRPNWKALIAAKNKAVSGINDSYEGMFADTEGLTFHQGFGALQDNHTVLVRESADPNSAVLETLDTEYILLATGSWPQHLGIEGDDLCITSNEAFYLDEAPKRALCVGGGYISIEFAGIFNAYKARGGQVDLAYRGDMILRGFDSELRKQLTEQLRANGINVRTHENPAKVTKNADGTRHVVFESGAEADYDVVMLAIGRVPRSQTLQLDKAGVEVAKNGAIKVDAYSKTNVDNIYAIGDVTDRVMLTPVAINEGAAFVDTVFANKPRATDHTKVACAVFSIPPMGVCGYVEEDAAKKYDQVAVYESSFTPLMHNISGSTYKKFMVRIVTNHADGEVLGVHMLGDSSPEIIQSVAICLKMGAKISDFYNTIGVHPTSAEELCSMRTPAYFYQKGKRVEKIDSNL

SMILES	IC50
COc1cc2c3cc1Oc1c(O)c(OC)cc4c1[C@H](Cc1ccc(cc1)Oc1cc(ccc1O)C[C@H]3NCC2)N(C)CC4 (racemic) [Daphnoline (R,S)]	50 µM
COc1cc2c3cc1Oc1cc(ccc1O)C[C@@H]1c4c(cc(OC)c(O)c4Oc4ccc(cc4)C[C@H]3N(C)CC2)CCN1C [(-)-BEBEERINE]	60 µM
COc1ccc2cc1Oc1ccc(cc1)C[C@H]1c3c(cc(OC)c(O)c3Oc3cc4c(cc3OC)CCN(C)[C@@H]4C2)CCN1C	55 µM
COc1cc2c3cc1Oc1c(O)c(OC)cc4c1[C@H](Cc1ccc(OC)c(c1)-c1cc(ccc1O)C[C@H]3N(C)CC2)N(C)CC4	60 µM
COc1ccc2cc1Oc1ccc(cc1)C[C@H]1c3c(cc(O)c(OC)c3Oc3cc4c(cc3OC)CCN(C)[C@@H]4C2)CCN1C [Gyrocarpine (S,R)]	58 µM
COc1ccc2cc1Oc1ccc(cc1)C[C@H]1c3c(cc4c(c3Oc3cc5c(cc3OC)CCN(C)[C@H]5C2)OCO4)CCN1C [Cepharanthine]	15 µM
COc1ccc2cc1Oc1ccc(cc1)C[C@H]1c3cc(c(OC)cc3CCN1C)Oc1c(OC)c(OC)cc3c1[C@@H](C2)N(C)CC3	122 µM and 235 µM
COc1cc2c3c(c1OC)Oc1ccc(cc1)C[C@@H]1c4c(cc(OC)c(OC)c4Oc4ccc(cc4)C[C@H]3N(C)CC2)CCN1C [Cycleanine (R,R)]	303 µM
COc1cc2c(cc1O)[C@@H](Cc1ccc(Oc3cc(C[C@H]4NCCc5cc(OC)c(O)cc54)ccc3O)cc1)NCC2 [Lindoldhamine (R,R)]	27 µM
COc1ccc2cc1Oc1ccc(cc1)C[C@H]1c3cc(c(OC)cc3CCN1C)Oc1c(O)c(OC)cc3c1[C@@H](C2)N(C)CC3 [Limacine (R,R)]	90 µM

From BindingDB's records for doi:10.3109/14756369809035823 (Orstom, 1998)
